# According to publication PMC7071015, “Structure-Based Design, Synthesis and Bioactivity of a New Anti-TNFα Cyclopeptide” (Molecules, 2020):
# Where a SMILES comes first, the peptide text is derived from it. Bridges are numbered along the chain shown (N, C = ends). Where no end group is shown, it is not given here.
# Columns and labels:
# [1] = tested on: TNFα production; details: stimulated monocytes; by promoting TNFα mRNA degradation; cited from earlier work
# Text: (§1) A range of biologics targeting TNFα have been licensed for the treatment of various inflammatory diseases, such as rheumatoid arthritis and Crohn’s disease. Although these agents have high potency and specificity, they are limited by their high production costs and potential immunogenicity. […] Also, their large molecular weight and low oral stability means their administration is only feasible through injection [[12 ...
# [2] = tested on: TNFα; details: cited from earlier work
# Protocol: Small molecule with anti-TNFα activity with compact 3D conformations containing trifluoromethylphenyl indole and chromone moieties have previously been designed. These compounds bind with high affinity (IC50 = 13 μM) to a hydrophobic binding pocket formed by six tyrosine residues (Y59, Y119 and Y151 from chain A and B) at the interface of TNFα dimer. Alternative binding pockets that bind small molecules have also been identified from the predicted TNFα-TNFR1 complex and these involve the residues H66, L67 and L71 of TNFR1 and residues R82, F90 and F127 in TNFα [18]. Recently, a small ...
# [3] = molecular target: T1, recombinant human TNFα (Homo sapiens, UniProt P01375); assay: HEK-Blue TNFα sensor cell assay (NF-ĸB-induced SEAP reporter); assay type: cell-based
# T1 construct: purchased InvivoGen
# Protocol: In the assay, the cells are transfected with a secretory alkaline phosphatase reporter gene which is downstream of the NF-ĸB promoter and expressed in response to TNFα receptor activation. The alkaline phosphatase activity was then quantified by measuring the absorbance (λ = 620 nm) of coloured substrate. […] Activation of HEK-Blue TNFα cells by 1 ng/mL of human TNFα (InvivoGen) in the presence and absence of anti-hTNFα antibody (InvivoGen) were used as positive and negative controls in the anti-TNFα assay (Figure 3).
# Peptides were dissolved in DMSO and solutions were diluted with the cell culture media so the final concentration of DMSO is 1%. Blank experiments with 1% DMSO were carried out.
# TNFα sensor cells (HEK-Blue) were grown in Dulbecco’s Modified Eagle’s medium (DMEM) containing 4.5 g/L glucose and supplemented with 10% [v/v] heat-inactivated foetal bovine serum, 2 mM L-glutamine, 100 μg/mL normocin, 50 U/mL penicillin and 50 μg/mL streptomycin. Selective antibiotics added to the culture medium include 100 μg/mL zeocin and 1 μg/mL puromycin and avoided in initial cultures (first 2 passages). Maintenance cultures were kept in T-75 cell culture flasks and incubated in humidified incubator with 5% [v/v] […]
# can then be quantified in cells supernatant (20 μL) by the reaction with 180 µL of QUANTI‐
# Blue™, a reagent that turns from purple to blue in the presence of SEAP. Quantification of […]
# [4] = tested on: HEK-Blue TNFα cells; details: 24 h, OD 540 nm, at the concentration used to test anti-TNFα activity, one duplicate
# Protocol: Therefore, this can be used as preliminary data for further biological evaluations.
# This assay was performed with one duplicate, and the error bars show standard error.
# The Vybrant®® MTT assay (Thermo Fisher Scientific) was performed following the manufacturer protocol. In this assay, cell permeable tetrazolium dye (yellow) was […] in viable cells to yield the water-insoluble formazan (purple) after incubation with HEK-TNFα cells. Formazan was then solubilised and quantified by measuring the UV absorbance at 540 nm.
# [5] = qualitative; reason for NMR in methanol-d3
# [6] = tested on: TNFα; parameters: method as in PMID 7756262; details: K562 cells, 125I-labelled TNFα; cited from earlier work
# [7] = tested on: menin-MLL protein–protein interaction; details: cited from earlier work
# Text: (§2) This was achieved by producing a cyclic peptide with higher target specificity compared to small molecules and low potential of immunogenicity when compared with biologics. Protein loops are often involved in the biomolecular recognition of proteins. Loop peptidomimetics have previously been introduced as a new class of bioactive agents. The ...
# [8] = tested on: protein kinase 2 regulatory subunit (CK2β) / catalytic subunit interaction; details: cited from earlier work
# Text: as §2
# [9] = cited from earlier work
# Text: as §1
# [10] = molecular target: recombinant human tumour necrosis factor alpha (TNFα) (human) (UniProt P01375)
# recombinant human tumour necrosis factor alpha (TNFα) (human), sequence (P01375 77-233): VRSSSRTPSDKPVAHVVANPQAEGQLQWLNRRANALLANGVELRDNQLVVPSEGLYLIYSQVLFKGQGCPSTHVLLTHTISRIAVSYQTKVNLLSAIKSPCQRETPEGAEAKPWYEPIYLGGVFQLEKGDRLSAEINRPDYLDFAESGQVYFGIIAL
# T1 sequence (P01375 77-233 limits assumed): as the sequence (P01375 77-233) above
molecule,measurement,setting,value
O=C1CCC(N2C(=O)c3ccccc3C2=O)C(=O)N1 (stereo not shown) [Thalidomide],effect on TNFα production,[1],inhibits TNFα production
Cc1ccc(C)c(Cn2c(CO)nc3ccccc32)c1 [UCB-6876],effect on TNFα trimer in co-crystal structure,[2],change in the spatial arrangement of the TNFα trimer and a loss of its 3-fold symmetry
CC(C)C[C@@H]1NC(=O)[C@H](Cc2ccc(O)cc2)NC(=O)[C@H](CCC(N)=O)NC(=O)[C@H](CO)NC(=O)[C@H](Cc2c[nH]c3ccccc23)NC(=O)[C@@H](NC(=O)[C@@H](N)Cc2ccc(O)cc2)CSSC[C@@H](C(=O)N[C@@H](Cc2ccc(O)cc2)C(=O)O)NC1=O [WP9QY],IC50,[3],122 µM
same,cytotoxicity (MTT),[4],no significant cytotoxicity
CC(C)C[C@@H]1NC(=O)[C@H](CC(N)=O)NC(=O)[C@H](CCC(=O)O)NC(=O)[C@H](CO)NC(=O)[C@H](Cc2c[nH]c3ccccc23)NC(=O)[C@H](Cc2ccc(O)cc2)NC(=O)[C@H](Cc2c[nH]cn2)NC(=O)CNC(=O)[C@@H]2CCCN2C(=O)[C@H](CCC(N)=O)NC(=O)[C@H](Cc2ccccc2)NC1=O [compound 1] (cyclo(HYWSENLFQPG)),concentration achieving inhibition of TNFα activity by 35%,"[3]; 35% inhibition, 1 ng/mL recombinant human TNFα, 24 h, 1% DMSO, absorbance 620 nm, duplicates",117.4 µM
same,cytotoxicity (MTT),[4],no significant cytotoxicity
same,solubility in water,[5],low solubility
Cc1ccc(C(=O)Nc2ccc(S(=O)(=O)O)c3cc(S(=O)(=O)O)cc(S(=O)(=O)O)c23)cc1NC(=O)c1cccc(NC(=O)Nc2cccc(C(=O)Nc3cc(C(=O)Nc4ccc(S(=O)(=O)O)c5cc(S(=O)(=O)O)cc(S(=O)(=O)O)c45)ccc3C)c2)c1 [suramin],effect on TNFα oligomer,[6],Deoligomerisation of TNFα
MCP-1,inhibition of menin-MLL interaction,[7],inhibitor of the menin-MLL protein–protein interaction
cyclo-GCRLYGFKIHGCG [cyclic peptide derived from the regulatory subunit (CK2β) of protein kinase 2],inhibition of CK2β interaction with catalytic subunit,[8],inhibits the interaction with the associated catalytic subunit
infliximab: large molecule biologic targeting TNFα,adverse reaction,[9],associated with development of infusion reaction
YCWSQYLCY (disulfide 2-8 (inferred)) [WP9QY],"concentration that inhibits TNFα activity by 35% in HEK-Blue TNFα sensor cells (NF-kB-driven secreted alkaline phosphatase), 1 ng/mL human TNFα, 24 h; the pair said to be blocked is TNFα with TNFR-1",[10],97.2 µM
HYWSENLFQPG (cyclised head to tail (N- to C-) via a proline-glycine linker) [cyclic peptide 1 (WP9 loop peptidomimetic 1)],"concentration that inhibits TNFα activity by 35% in HEK-Blue TNFα sensor cells (NF-kB-driven secreted alkaline phosphatase), 1 ng/mL human TNFα, 24 h; the pair said to be blocked is TNFα with TNFR-1",[10],117 µM
